Results reported in patent US20080293699A1, “Inhibitors of thapsigargin-induced cell death” (priority 2007, published 2008).

How the values were obtained:
phospho-p38 MAPK = assay: Thapsigargin-induced p38 MAPK phosphorylation in CSM14.1 cells (immunoblotting and MSD assay); type: cell-based, rat
Source text: After confirming the pathway selectivity of compounds, additional downstream assays can be performed to map the specific signal transduction pathway inhibited by the compounds. In this regard, various antibody reagents are commercially available for assessing the status of the three major pathways known to be activated by ER stress: (1) PERK, (2) Ire1, and (3) ATF6 (Xu et al., J. Clinical Invest., 115:2656-2664, 2005). Immunoblotting experiments can be performed to assess the expression or phosphorylation (using phospho-specific antibodies) of marker proteins in these pathways. […] Cell lysates were prepared and analyzed by SDS-PAGE/immunoblotting using antibodies specific for phospho-c-Jun, phospho-eIF2α, phospho-p38 MAPK, and tubulin (a loading control). […] After two hrs, cell lysates were prepared, normalized for protein content, and either analyzed by SDS-PAGE/immunoblotting using anti-p38-MAPK pan-reactive antibody or phospho-specific antibody with ECL-based detection, followed by densitometry analysis of x-ray films, normalizing phosphor-p38 MAPK relative to total p38 MAPK, or analyzed using a meso-scale instrument from MSD and a procedure in which total p38 MAPK is captured on plates, and the relative amounts of phosphorylated protein were determined using phospho-specific antibody (MSD catalog #K15112D1). […]

CHOP = assay: Thapsigargin-induced expression of CHOP; type: cell-based, rat; settings: listed as CID-2878746
Procedure: CSM 14.1 cells were cultured with DMSO or with 25 μM of hit compounds for two hours followed by treatment with thapsigargin (15 μM). Cell lysates were prepared and analyzed by SDS-PAGE/immunoblotting using antibodies specific for: c-Jun, phosphor-c-Jun (ser 73), eIF2a, phosphor-eIF2a (ser 51), p38 MAPK, phosphor-p38 MAPK (Thr180/Tyr182), ATF-6, CHOP and tubulin (loading control). ER stress-induced activation of C-Jun and p38 MAPK is suppressed by the 11 hit compounds.

[1] = system: primary mouse neuronal cells; assay: Thapsigargin-induced death of primary mouse neuronal cells, immunostaining and microscopy; type: cell-based; settings: 25 μM, two hours before thapsigargin for 24 hours
Procedure: (§1) Primary cortical neuron cells were prepared from the […] of mice. After 14 days of maturation, the cells were preincubated with DMSO (0.2%) or 25 μM of compound 6239507 for two hours. The cells were then treated with thapsigargin (TG) for 24 hours. Cells were fixed with an aldehyde solution and subjected to immunostaining with NeuN and MAP2 antibody for staining the neuronal body and axon network. Hoechst dye was used to stain nuclei. To show the loss of the axon network by thapsigargin, a wide field was captured by fluorescent microscopy. Cells showing a condensed nucleus and shrunken neuritis were considered as dead to evaluate cell death.
as §1, with “Fluorescent microscopy was used to” for “To”, “thapsigargin.” for “thapsigargin, a wide field was captured by fluorescent microscopy.”

Row | Structure (SMILES) | Thapsigargin-induced phosphorylation of p38MAPK (phospho-p38 MAPK; CSM14.1, immunoblotting and MSD assay, 10 μM, 25 μM hits) | IC50 (phospho-p38 MAPK; quantitative ELISA-methods, thapsigargin-treated CSM14.1, estimated, read-out: IC50 for p38MAPK phosphorylation) [µM] | Thapsigargin-induced expression of CHOP (CHOP) | Inhibition of ER stress-induced cell death in primary mouse neuronal cells [1]
1 | CCN(CC)c1ccc(C2Nc3ccccc3NC3=C2C(=O)CC(c2ccccc2)C3)cc1 (stereo not shown) [Compound 5962123, 6-(4-diethylaminophenyl)-9-phenyl-5,6,8,9,10,11-hexahydrobenzo[c][1,5]benzodiazepin-7-one] | inhibits | < 5 | not inhibited | –
2 | COc1ccc(C2CC(=O)C3=C(C2)Nc2ccccc2NC3c2cccc(Oc3ccccc3)c2)cc1OC (stereo not shown) [Compound 6239507] | – | – | – | can inhibit
